Assay results as given in patent US20090156577A1, “7-AMINO ALKYLIDENYL-HETEROCYCLIC QUINOLONES AND NAPHTHYRIDONES” (priority 2004, published 2009).
≈ marks a conversion by molar mass, not a printed value. Where a name gives a salt, the structure may show the parent alone. Read-outs that look alike come from different tables or passages of the source.

System: pathogenic bacteria
Assay: MIC by microdilution broth method (NCCLS M7-A4), in vitro antibacterial activity
Format: cell-based
Summary of the method: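 Broth microdilution per NCCLS M7-A4: two-fold serial dilutions in cation-adjusted Mueller-Hinton broth, inoculum about 5×10^4 CFU/well. Trays incubated 16–20 h at 35 °C. MIC read by comparing growth against no-compound growth controls.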

[1] = Staphylococcus aureus, Organism A: Staphylococcus aureus OC4172
[2] = Streptococcus pneumoniae, ATCC49619, Organism E: Streptococcus pneumoniae ATCC 49619
[3] = Streptococcus pneumoniae, Organism C: fluoroquinolone-resistant clinical isolate of Streptococcus pneumoniae (QRDR amino acid substitutions)
[4] = Streptococcus pneumoniae, Organism D: fluoroquinolone-resistant clinical isolate of Streptococcus pneumoniae (QRDR amino acid substitutions)
[5] = Staphylococcus aureus, Organism A: Staphylococcus aureus OC4172, read-out: MIC
[6] = Streptococcus pneumoniae, ATCC49619, Organism E: Streptococcus pneumoniae ATCC 49619, read-out: MIC
[7] = Streptococcus pneumoniae, Organism B: fluoroquinolone-resistant clinical isolate of Streptococcus pneumoniae (QRDR amino acid substitutions)

SMILES	MIC [1] [µg/mL]	MIC [2] [µg/mL]	MIC [3] [µg/mL]	MIC [4] [µg/mL]	MIC [5] [µg/mL]	MIC [6] [µg/mL]	MIC [7] [µg/mL]
O=C(O)c1cn(C2CC2)c2nc(N3CCC(=C(Cl)CN4CCNCC4)CC3)c(F)cc2c1=O [Compound 292, 7-[4-(1-chloro-2-piperazin-1-yl-ethylidene)-piperidin-1-yl]-1-cyclopropyl-6-fluoro-4-oxo-1,4-dihydro-[1,8]naphthyridine-3-carboxylic Acid Trifluoroacetic Acid Salt]	1	4	> 16	16	–	–	–
O=C(O)C(F)(F)F.O=C(O)c1cn(C2CC2)c2nc(N3CCC(=C(F)CN4CCNCC4)CC3)c(F)cc2c1=O [Compound 294, 1-Cyclopropyl-6-fluoro-7-[4-(1-fluoro-2-piperazin-1-yl-ethylidene)-piperidin-1-yl]-4-oxo-1,4-dihydro-[1,8]naphthyridine-3-carboxylic Acid Trifluoroacetic Acid Salt]	–	–	> 16	> 16	2	8	> 16
C[C@H]1COc2c(N3CCC(=C(F)CN(C)C)CC3)c(F)cc3c(=O)c(C(=O)O)cn1c23 [Compound 295, 9-[4-(2-Dimethylamino-1-fluoro-ethylidene)-piperidin-1-yl]-8-fluoro-(3S)-3-methyl-6-oxo-2,3-dihydro-6H-1-oxa-3a-aza-phenalene-5-carboxylic Acid]	–	–	16 (≈ 36.9 µM)	8 (≈ 18.5 µM)	0.5 (≈ 1.15 µM)	2 (≈ 4.61 µM)	16 (≈ 36.9 µM)
C/C(CN)=C1\CCCN(c2nc3c(cc2F)c(=O)c(C(=O)O)cn3C2CC2)C1.O=C(O)C(F)(F)F [Compound 297, (Z)-7-[3-(1-Amino-2-propylidene)-piperidin-1-yl]-1-cyclopropyl-6-fluoro-4-oxo-1,4-dihydro-[1,8]naphthyridine-3-carboxylic Acid Trifluoroacetic Acid Salt]	–	–	16	16	0.25	1	16
CN(C)CC(Cl)=C1CCN(c2cc3c(cc2F)c(=O)c(C(=O)O)cn3C2CC2)CC1 [Compound 298, 7-[4-(1-Chloro-2-dimethylamino-ethylidene)-piperidin-1-yl]-1-cyclopropyl-6-fluoro-4-oxo-1,4-dihydro-quinoline-3-carboxylic Acid Trifluoroacetic Acid Salt]	0.25	1	16	8	–	–	16
CN(C)CC(F)=C1CCN(c2cc3c(cc2F)c(=O)c(C(=O)O)cn3C2CC2)CC1 [Compound 299, 1-Cyclopropyl-7-[4-(2-dimethylamino-1-fluoro-ethylidene)-piperidin-1-yl]-6-fluoro-4-oxo-1,4-dihydro-quinoline-3-carboxylic acid]	–	–	> 16	2 (≈ 4.79 µM)	0.5 (≈ 1.2 µM)	1 (≈ 2.4 µM)	16 (≈ 38.3 µM)
O=C(O)c1cn(C2CC2)c2cc(N3CCC(=C(Cl)CN4CCCCC4)CC3)c(F)cc2c1=O [Compound 300, 7-[4-(1-Chloro-2-piperidin-1-yl-ethylidene)-piperidin-1-yl]-1-cyclopropyl-6-fluoro-4-oxo-1,4-dihydro-quinoline-3-carboxylic acid]	–	–	> 16	2 (≈ 4.22 µM)	0.5 (≈ 1.05 µM)	2 (≈ 4.22 µM)	> 16
C/C(CN)=C1\CCCN(c2cc3c(cc2F)c(=O)c(C(=O)O)cn3C2CC2)C1 [Compound 301, (Z)-7-[3-(2-Amino-1-methyl-ethylidene)-piperidin-1-yl]-1-cyclopropyl-6-fluoro-4-oxo-1,4-dihydro-quinoline-3-carboxylic acid]	–	–	8 (≈ 20.8 µM)	8 (≈ 20.8 µM)	0.12 (≈ 0.311 µM)	0.25 (≈ 0.649 µM)	8 (≈ 20.8 µM)
COc1c(N2CCC/C(=C(\C)CN)C2)c(F)cc2c(=O)c(C(=O)O)cn(C3CC3)c12 [Compound 302, (Z)-7-[3-(2-Amino-1-methyl-ethylidene)-piperidin-1-yl]-1-cyclopropyl-6-fluoro-8-methoxy-4-oxo-1,4-dihydro-quinoline-3-carboxylic acid]	–	–	≤ 0.5	1 (≈ 2.41 µM)	≤ 0.03	≤ 0.12	1 (≈ 2.41 µM)
COc1c(N2CCC/C(=C(\F)CN)C2)c(F)cc2c(=O)c(C(=O)O)cn(C3CC3)c12 [Compound 303, (E)-7-[3-(2-Amino-1-fluoro-ethylidene)-piperidin-1-yl]-1-cyclopropyl-6-fluoro-8-methoxy-4-oxo-1,4-dihydro-quinoline-3-carboxylic Acid Trifluoroacetic Acid Salt]	–	–	0.12	0.25	≤ 0.015	0.03	0.25
COc1c(N2CC(=C(Cl)CO)C2)c(F)cc2c(=O)c(C(=O)O)cn(C3CC3)c12 [Compound 356, 7-[3-(1-Chloro-2-hydroxy-ethylidene)-azetidin-1-yl]-1-cyclopropyl-6-fluoro-8-methoxy-4-oxo-1,4-dihydro-quinoline-3-carboxylic Acid]	–	–	> 16	8 (≈ 19.6 µM)	0.06 (≈ 0.147 µM)	0.5 (≈ 1.22 µM)	≤ 4
O=C(O)c1cn(C2CC2)c2nc(N3CC(=C(Cl)CO)C3)c(F)cc2c1=O [Compound 357, 7-[3-(1-Chloro-2-hydroxy-ethylidene)-azetidin-1-yl]-1-cyclopropyl-6-fluoro-4-oxo-1,4-dihydro-[1,8]naphthyridine-3-carboxylic Acid]	–	–	16 (≈ 42.1 µM)	4 (≈ 10.5 µM)	0.25 (≈ 0.658 µM)	1 (≈ 2.63 µM)	8 (≈ 21.1 µM)
NC/C(F)=C1/CCCN(c2c(F)cc3c(=O)c(C(=O)O)cn(-c4nc(N)c(F)cc4F)c3c2Cl)C1 [Compound 358, (E)-1-(6-Amino-3,5-difluoro-pyridin-2-yl)-7-[3-(2-amino-1-fluoro-ethylidene)-piperidin-1-yl]-8-chloro-6-fluoro-4-oxo-1,4-dihydro-quinoline-3-carboxylic Acid Trifluoroacetate]	0.12	0.5	8	16	–	–	16
Nc1nc(-n2cc(C(=O)O)c(=O)c3cc(F)c(N4CCC/C(=C(/F)CO)C4)c(Cl)c32)c(F)cc1F [Compound 359, (Z)-1-(6-Amino-3,5-difluoro-pyridin-2-yl)-8-chloro-6-fluoro-7-[3-(1-fluoro-2-hydroxy-ethylidene)-piperidin-1-yl]-4-oxo-1,4-dihydroquinoline-3-carboxylic Acid Trifluoroacetate]	0.12	1	8	16	–	–	–
CNCC(Cl)=C1CN(c2c(F)cc3c(=O)c(C(=O)O)cn(-c4nc(N)c(F)cc4F)c3c2Cl)C1 [Compound 360, 1-(6-Amino-3,5-difluoro-pyridin-2-yl)-8-chloro-7-[3-(1-chloro-2-methylamino-ethylidene)-azetidin-1-yl]-6-fluoro-4-oxo-1,4-dihydro-quinoline-3-carboxylic Acid]	–	–	8 (≈ 15.6 µM)	8 (≈ 15.6 µM)	0.06 (≈ 0.117 µM)	0.5 (≈ 0.972 µM)	16 (≈ 31.1 µM)
Nc1nc(-n2cc(C(=O)O)c(=O)c3cc(F)c(N4CC(=C(Cl)CO)C4)c(Cl)c32)c(F)cc1F [Compound 361, 1-(6-Amino-3,5-difluoro-pyridin-2-yl)-8-chloro-7-[3-(1-chloro-2-hydroxy-ethylidene)-azetidin-1-yl]-6-fluoro-4-oxo-1,4-dihydro-quinoline-3-carboxylic acid]	–	–	0.12 (≈ 0.239 µM)	0.06 (≈ 0.12 µM)	≤ 0.015	≤ 0.015	0.12 (≈ 0.239 µM)
C[C@H]1COc2c(N3CC(=C(Cl)CO)C3)c(F)cc3c(=O)c(C(=O)O)cn1c23 [Compound 362, (S)-9-[3-(1-Chloro-2-hydroxy-ethylidene)-azetidin-1-yl]-8-fluoro-3-methyl-6-oxo-2,3-dihydro-6H-1-oxa-3a-aza-phenalene-5-carboxylic Acid]	–	–	> 16	8 (≈ 20.3 µM)	0.03 (≈ 0.076 µM)	0.5 (≈ 1.27 µM)	8 (≈ 20.3 µM)
COc1c(N2CC(=C(Cl)CO)C2)c(F)cc2c(=O)c(C(=O)O)cn([C@@H]3C[C@@H]3F)c12 [Compound 363, 7-[3-(1-Chloro-2-hydroxy-ethylidene)-azetidin-1-yl]-6-fluoro-(1R,2S)-1-(2-fluoro-cyclopropyl)-8-methoxy-4-oxo-1,4-dihydro-quinoline-3-carboxylic Acid]	–	–	> 16	16 (≈ 37.5 µM)	0.03 (≈ 0.0703 µM)	0.5 (≈ 1.17 µM)	4 (≈ 9.37 µM)
Cc1c(F)c(N2CC(=C(Cl)CO)C2)cc2c1c(=O)c(C(=O)O)cn2C1CC1 [Compound 364, 7-[3-(1-Chloro-2-hydroxy-ethylidene)-azetidin-1-yl]-1-cyclopropyl-6-fluoro-5-methyl-4-oxo-1,4-dihydro-quinoline-3-carboxylic Acid]	–	–	> 16	> 16	0.06 (≈ 0.153 µM)	2 (≈ 5.09 µM)	> 16
C[C@H]1COc2c(N3CC(=CCN)C3)c(F)cc3c(=O)c(C(=O)O)cn1c23 [Compound 365, (S)-9-[3-(2-Amino-ethylidene)-azetidin-1-yl]-8-fluoro-3-methyl-6-oxo-2,3-dihydro-6H-1-oxa-3a-aza-phenalene-5-carboxylic Acid]	–	–	> 16	> 16	0.12 (≈ 0.334 µM)	2 (≈ 5.57 µM)	–
CC(CN)=C1CN(c2c(F)cc3c(=O)c(C(=O)O)cn4c3c2OC[C@@H]4C)C1 [Compound 366, (S)-9-[3-(2-Amino-1-methyl-ethylidene)-azetidin-1-yl]-8-fluoro-3-methyl-6-oxo-2,3-dihydro-6H-1-oxa-3a-aza-phenalene-5-carboxylic Acid]	–	–	> 16	8 (≈ 21.4 µM)	4 (≈ 10.7 µM)	4 (≈ 10.7 µM)	–
